According to BindingDB's records for doi:10.1016/j.ejmech.2009.11.010 (Chinese Academy of Sciences, 2010):

target: T1, Cathepsin K (Homo sapiens, UniProt P43235); experiment: Inhibition of human cathepsin K
T1 sequence (P43235 whole entry): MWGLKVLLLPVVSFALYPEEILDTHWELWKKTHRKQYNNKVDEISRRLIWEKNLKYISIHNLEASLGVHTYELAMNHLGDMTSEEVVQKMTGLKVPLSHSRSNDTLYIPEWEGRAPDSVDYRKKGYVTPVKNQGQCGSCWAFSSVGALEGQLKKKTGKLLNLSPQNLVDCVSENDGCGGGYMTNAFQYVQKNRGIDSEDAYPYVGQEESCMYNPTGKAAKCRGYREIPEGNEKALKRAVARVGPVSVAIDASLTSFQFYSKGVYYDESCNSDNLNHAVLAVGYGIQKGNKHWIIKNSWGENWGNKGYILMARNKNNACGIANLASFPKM

Row | Structure (SMILES) | IC50 [nM]
1 | CCCC[C@H](NC(=O)O[C@H](Cc1nnc(-c2ccccc2)o1)C(C)(C)C)C(=O)C(=O)N[C@H](C)c1ccccc1 [(R)-3,3-dimethyl-1-(5-phenyl-1,3,4-oxadiazol-2-yl)butan-2-yl(S)-1,2-dioxo-1-((R)-1-phenylethylamino)heptan-3-ylcarbamate] | 0.24
2 | CCCC[C@H](NC(=O)O[C@H](CN1CCN(c2ccc(C(F)(F)F)cc2)C1=O)C(C)(C)C)C(=O)C(=O)Nc1ccn[nH]1 [(S)-3,3-dimethyl-1-(2-oxo-3-(4-(trifluoromethyl)phenyl)imidazolidin-1-yl)butan-2-yl(S)-1-(1H-pyrazol-5-ylamino)-1,2-dioxoheptan-3-ylcarbamate] | 0.339
3 | CCCC[C@H](NC(=O)O[C@H](Cc1nnc(-c2ccc(F)cc2)o1)C(C)(C)C)C(=O)C(=O)N[C@H](C)c1ccccc1 [[(S)-1-(1-Phenyl-ethylaminooxalyl)-pentyl]-carbamic acid (R)-1-[5-(4-fluoro-phenyl)-[1,3,4]oxadiazol-2-ylmethyl]-2,2-dimethyl-propyl ester] | 0.372
4 | CCCC[C@H](NC(=O)O[C@H](Cc1nnc(-c2ccc(F)cc2)o1)C(C)(C)C)C(=O)C(=O)NCc1cccnc1 [(R)-1-(5-(4-fluorophenyl)-1,3,4-oxadiazol-2-yl)-3,3-dimethylbutan-2-yl(S)-1,2-dioxo-1-(pyridin-3-ylmethylamino)heptan-3-ylcarbamate] | 2.82
5 | CCCC[C@H](NC(=O)O[C@H](Cc1nnc(-c2ccc(C(F)(F)F)cc2)o1)C(C)(C)C)C(=O)C(=O)NN1CCOC1=O [(1R)-2,2-DIMETHYL-1-({5-[4-(TRIFLUOROMETHYL)PHENYL]-1,3,4-OXADIAZOL-2-YL}METHYL)PROPYL (1S)-1-{OXO[(2-OXO-1,3-OXAZOLIDIN-3-YL)AMINO]ACETYL}PENTYLCARBAMATE] | 0.129

Further lines, results first:

Row | IC50 [nM] | Structure (SMILES)
6 | 5.75 | CCCC[C@H](NC(=O)O[C@H](Cn1cnc(-c2ccc(C(F)(F)F)cc2)c1)C(C)(C)C)C(=O)C(=O)Nc1nccs1 [[(S)-1-(Thiazol-2-ylaminooxalyl)-pentyl]-carbamic acid (S)-2,2-dimethyl-1-[4-(4-trifluoromethyl-phenyl)-imidazol-1-ylmethyl]-propyl ester]
7 | 0.0288 | CCCC[C@H](NC(=O)O[C@H](Cc1nnc(-c2ccc(C(F)(F)F)cc2)o1)C(C)(C)C)C(=O)C(=O)Nc1ccn[nH]1 [[(S)-1-(2H-Pyrazol-3-ylaminooxalyl)-pentyl]-carbamic acid (R)-2,2-dimethyl-1-[5-(4-trifluoromethyl-phenyl)-[1,3,4]oxadiazol-2-ylmethyl]-propyl ester]
8 | 0.407 | CCCC[C@H](NC(=O)O[C@H](Cc1nnc(-c2ccc(C(F)(F)F)cc2)o1)C(C)(C)C)C(=O)C(=O)N[C@H](C)c1ccccc1 [[(S)-1-(1-Phenyl-ethylaminooxalyl)-pentyl]-carbamic acid (R)-2,2-dimethyl-1-[5-(4-trifluoromethyl-phenyl)-[1,3,4]oxadiazol-2-ylmethyl]-propyl ester]
9 | 457 | CCCC[C@H](NC(=O)O[C@@H](Cc1nnc(-c2ccccc2)o1)C(C)(C)C)C(=O)C(=O)N[C@H](C)c1ccccc1 [[(S)-1-(1-Phenyl-ethylaminooxalyl)-pentyl]-carbamic acid (S)-2,2-dimethyl-1-(5-phenyl-[1,3,4]oxadiazol-2-ylmethyl)-propyl ester]
